Experiments:
PARP1 = PARP1 (Homo sapiens, UniProt P09874); experiment: PARP1 inhibition assay; type: biochemical; details: tested in duplicate, average; for inhibition at 1 µM: read-out: Inhibition rate PARP1, 1 μmol/L; for inhibition at 10 µM: read-out: Inhibition rate PARP1, 10 μmol/L
[1] = molecular target: recombinant BRD4(BD1 + BD2) (Homo sapiens, UniProt O60885); experiment: BRD4 inhibition assay; type: binding; details: tested in duplicate, average; for inhibition at 1 µM: read-out: Inhibition rate BRD4, 1 μmol/L; for inhibition at 10 µM: read-out: Inhibition rate BRD4, 10 μmol/L
MDA-MB-468 cells = experiment: Cell viability assay; type: cell-based, human; details: Homo sapiens, MDA-MB-468, 24 h, read-out: Anti-proliferative activity (IC50)

Chain of PARP1 (P09874 whole entry): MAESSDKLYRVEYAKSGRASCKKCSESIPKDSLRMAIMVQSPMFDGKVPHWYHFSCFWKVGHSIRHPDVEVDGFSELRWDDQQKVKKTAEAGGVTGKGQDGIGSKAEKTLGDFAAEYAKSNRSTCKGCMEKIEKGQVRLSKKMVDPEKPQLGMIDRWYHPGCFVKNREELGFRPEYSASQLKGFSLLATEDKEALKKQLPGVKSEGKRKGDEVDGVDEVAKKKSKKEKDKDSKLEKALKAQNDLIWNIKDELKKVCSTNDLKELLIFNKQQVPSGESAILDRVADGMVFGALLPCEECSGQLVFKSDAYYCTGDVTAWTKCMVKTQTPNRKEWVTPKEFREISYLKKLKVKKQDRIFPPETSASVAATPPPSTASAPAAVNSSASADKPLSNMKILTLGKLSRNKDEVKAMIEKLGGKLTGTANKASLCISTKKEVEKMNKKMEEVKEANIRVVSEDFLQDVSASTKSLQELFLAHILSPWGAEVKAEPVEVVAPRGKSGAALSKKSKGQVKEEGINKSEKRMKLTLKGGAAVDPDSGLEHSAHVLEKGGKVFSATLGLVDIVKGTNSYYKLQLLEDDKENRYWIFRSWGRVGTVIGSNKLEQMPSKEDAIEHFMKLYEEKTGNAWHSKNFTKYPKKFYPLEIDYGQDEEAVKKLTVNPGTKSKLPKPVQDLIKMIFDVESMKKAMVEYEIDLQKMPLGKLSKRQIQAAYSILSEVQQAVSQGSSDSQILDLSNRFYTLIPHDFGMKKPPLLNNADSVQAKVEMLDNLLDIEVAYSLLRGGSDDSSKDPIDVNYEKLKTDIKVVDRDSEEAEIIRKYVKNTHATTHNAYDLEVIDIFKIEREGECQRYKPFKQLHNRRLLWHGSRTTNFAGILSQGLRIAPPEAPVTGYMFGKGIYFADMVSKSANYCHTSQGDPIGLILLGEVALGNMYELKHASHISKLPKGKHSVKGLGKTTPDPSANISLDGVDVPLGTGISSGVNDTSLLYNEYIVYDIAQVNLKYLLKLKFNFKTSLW

Compound	Inhibition rate PARP1 (PARP1; 1 μmol/L) [%]	Inhibition rate PARP1 (PARP1; 10 μmol/L) [%]	Inhibition rate BRD4 ([1]; 1 μmol/L) [%]	Inhibition rate BRD4 ([1]; 10 μmol/L) [%]	inhibition at 1 µM (PARP1) [%]	inhibition at 10 µM (PARP1) [%]	inhibition at 1 µM [1] [%]	inhibition at 10 µM [1] [%]	IC50 (MDA-MB-468 cells) [nM]
2-(4-((4-(Cyclopropanecarbonyl)piperazin-1-yl)methyl)phenyl)-5,7-dimethoxyquinazolin-4(3H)-one [Compound 11c]	8	60	9	47					
2-(4-((4-(Cyclopropanecarbonyl)piperazin-1-yl)methyl)phenyl)quinazolin-4(3H)-one [Compound 11d]	18	71	4	41					
CNC(=O)c1ccc(-c2nc3cc(OC)cc(OC)c3c(=O)[nH]2)cc1 [Compound 5a, 4-(5,7-Dimethoxy-4-oxo-3,4-dihydroquinazolin-2-yl)-N-methylbenzamide]					4	25	1	36	
CNC(=O)c1ccc(-c2nc3ccccc3c(=O)[nH]2)cc1 [Compound 5b, N-Methyl-4-(4-oxo-3,4-dihydroquinazolin-2-yl)benzamide]					0	15	0	22	
COc1cc(OC)c2c(=O)[nH]c(-c3ccc(C(N)=O)cc3)nc2c1 [Compound 5c, 4-(5,7-Dimethoxy-4-oxo-3,4-dihydroquinazolin-2-yl)benzamide]					0	2	1	18	
NC(=O)c1ccc(-c2nc3ccccc3c(=O)[nH]2)cc1 [Compound 5d, 4-(4-Oxo-3,4-dihydroquinazolin-2-yl)benzamide]					0	1	2	19	
COc1cc(OC)c2c(=O)[nH]c(-c3ccc(N4CCOCC4)cc3)nc2c1 [Compound 5e, 5,7-Dimethoxy-2-(4-morpholinophenyl)quinazolin-4(3H)-one]					2	36	12	70	
O=c1[nH]c(-c2ccc(N3CCOCC3)cc2)nc2ccccc12 [Compound 5f, 2-(4-Morpholinophenyl)quinazolin-4(3H)-one]					0	29	12	55	
COc1cc(OC)c2c(=O)[nH]c(-c3ccc4cc[nH]c4c3)nc2c1 [Compound 5g, 2-(1H-Indol-6-yl)-5,7-dimethoxyquinazolin-4(3H)-one]					9	34	3	13	
O=c1[nH]c(-c2cccc3nc[nH]c23)nc2ccccc12 [Compound 5h, 2-(1H-Benzo[d]imidazole-7-yl)quinazolin-4(3H)-one]					3	10	0	11	
COc1cc(OC)c2c(=O)[nH]c(-c3c[nH]c4ncccc34)nc2c1 [Compound 5i, 5,7-Dimethoxy-2-(1H-pyrrolo[2,3-b]pyridin-3-yl)quinazolin-4(3H)-one]					8				
O=c1[nH]c(-c2c[nH]c3ncccc23)nc2ccccc12 [Compound 5j, 2-(1H-Pyrrolo[2,3-b]pyridin-3-yl)quinazolin-4(3H)-one]							6		
COc1cc(OC)c2c(=O)[nH]c(-c3cccc4nc[nH]c34)nc2c1 [Compound 5k, 2-(1H-Benzo[d]imidazole-7-yl)-5,7-dimethoxyquinazolin-4(3H)-one]					6	39	8	42	
COc1cc(OC)c2c(=O)[nH]c(-c3cccc(C(=O)N4CCN(C(=O)C5CC5)CC4)c3)nc2c1 [Compound 11a, 2-(3-(4-(Cyclopropanecarbonyl)piperazine-1-carbonyl)phenyl)-5,7-dimethoxyquinazolin-4(3H)-one]					6	57	4	50	
O=C(c1cccc(-c2nc3ccccc3c(=O)[nH]2)c1)N1CCN(C(=O)C2CC2)CC1 [Compound 11b, 2-(3-(4-(Cyclopropanecarbonyl)piperazine-1-carbonyl)phenyl)quinazolin-4(3H)-one]					16	70	12	43	
COc1cccc2nc(-c3cccc(C(=O)N4CCN(C(=O)C5CC5)CC4)c3)[nH]c(=O)c12 [Compound 11e, 2-(3-(4-(Cyclopropanecarbonyl)piperazine-1-carbonyl)phenyl)-5-methoxyquinazolin-4(3H)-one]					4	46	8	30	
COc1cc(OC)c2c(=O)[nH]c(-c3ccc(C(=O)N4CCN(C(=O)C5CC5)CC4)cc3F)nc2c1 [Compound 15a, 2-(4-(4-(Cyclopropanecarbonyl)piperazine-1-carbonyl)-2-fluorophenyl)-5,7-dimethoxyquinazolin-4(3H)-one]					14	72	7	68	
O=C(c1ccc(-c2nc3ccccc3c(=O)[nH]2)c(F)c1)N1CCN(C(=O)C2CC2)CC1 [Compound 15b, 2-(4-(4-(Cyclopropanecarbonyl)piperazine-1-carbonyl)-2-fluorophenyl)quinazolin-4(3H)-one]					6	≤ 87	4	53	
COc1cc(OC)c2c(=O)[nH]c(-c3ccc(C(=O)N4CCn5c(nnc5C(F)(F)F)C4)cc3F)nc2c1 [Compound 15c, 2-(2-Fluoro-4-(3-(trifluoromethyl)-5,6,7,8-tetrahydro-[1,2,4]triazolo[4,3-a]pyrazine-7-carbonyl)phenyl)-5,7-dimethoxyquinazolin-4(3H)-one]					11	55	5	30	
O=C(c1ccc(-c2nc3ccccc3c(=O)[nH]2)c(F)c1)N1CCn2c(nnc2C(F)(F)F)C1 [Compound 15d, 2-(2-Fluoro-4-(3-(trifluoromethyl)-5,6,7,8-tetrahydro-[1,2,4]triazolo[4,3-a]pyrazine-7-carbonyl)phenyl)quinazolin-4(3H)-one]						60	3	18	
COc1cccc2nc(-c3ccc(C(=O)N4CCN(C(=O)C5CC5)CC4)cc3F)[nH]c(=O)c12 [Compound 15e, 2-(4-(4-(Cyclopropanecarbonyl)piperazine-1-carbonyl)-2-fluorophenyl)-5-methoxyquinazolin-4(3H)-one]					7		9		
COc1cc(OC)c2c(=O)[nH]c(-c3ccc(OCOc4ccccc4C(N)=O)cc3)nc2c1 [Compound 19v, 2-((4-(5,7-Dimethoxy-4-oxo-3,4-dihydroquinazolin-2-yl)phenoxy)methoxy)benzamide]					19	51	29	60	
O=C(c1cc(Cc2n[nH]c(=O)c3ccccc23)ccc1F)N1CCN(C(=O)C2CC2)CC1 [Olaparib, reference compound]									1100 ± 1400

— article PMC7838034 (Acta Pharmaceutica Sinica. B, 2020)
